Paper PMC7611204 (Molecular cancer therapeutics, 2020)

How the values were obtained:
[1] = target: T1, serine hydroxymethyltransferase 2 (SHMT2) (Homo sapiens, UniProt P34897); assay: microscale thermophoresis with labeled recombinant human SHMT2; type: binding
T1 sequence (P34897 30-504): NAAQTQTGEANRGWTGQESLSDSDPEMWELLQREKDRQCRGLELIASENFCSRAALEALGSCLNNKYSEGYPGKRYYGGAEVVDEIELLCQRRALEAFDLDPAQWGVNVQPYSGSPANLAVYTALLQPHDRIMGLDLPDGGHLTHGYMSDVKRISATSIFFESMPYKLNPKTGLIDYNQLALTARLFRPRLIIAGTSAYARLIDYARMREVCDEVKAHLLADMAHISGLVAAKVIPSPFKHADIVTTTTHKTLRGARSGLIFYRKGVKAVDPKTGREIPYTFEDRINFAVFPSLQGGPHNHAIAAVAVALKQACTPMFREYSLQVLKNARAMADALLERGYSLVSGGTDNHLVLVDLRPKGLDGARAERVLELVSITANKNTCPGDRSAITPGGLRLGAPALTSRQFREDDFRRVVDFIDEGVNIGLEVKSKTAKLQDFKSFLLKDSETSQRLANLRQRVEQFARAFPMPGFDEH

[2] = target: T2, phosphoglycerate dehydrogenase (PHGDH) (Homo sapiens, UniProt O43175)
T2 sequence (O43175 2-533): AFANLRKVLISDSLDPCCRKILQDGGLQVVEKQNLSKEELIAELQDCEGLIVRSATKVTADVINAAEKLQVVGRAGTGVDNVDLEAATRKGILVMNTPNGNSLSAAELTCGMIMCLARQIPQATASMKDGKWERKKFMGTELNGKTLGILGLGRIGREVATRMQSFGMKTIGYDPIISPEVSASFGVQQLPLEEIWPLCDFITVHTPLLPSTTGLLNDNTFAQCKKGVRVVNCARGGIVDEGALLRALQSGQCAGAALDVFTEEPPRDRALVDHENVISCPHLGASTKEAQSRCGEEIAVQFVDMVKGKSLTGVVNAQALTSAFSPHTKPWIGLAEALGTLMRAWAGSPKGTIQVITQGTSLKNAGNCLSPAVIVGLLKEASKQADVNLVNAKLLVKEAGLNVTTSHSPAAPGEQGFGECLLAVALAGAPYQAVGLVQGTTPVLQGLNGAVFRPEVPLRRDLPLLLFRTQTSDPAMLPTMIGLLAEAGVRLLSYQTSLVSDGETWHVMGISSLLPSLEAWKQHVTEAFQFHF

Compound | Kd [1] [µM] | IC50 [2] [nM]
CN[C@H]1CC[C@@H](c2ccc(Cl)c(Cl)c2)c2ccccc21 [sertraline] | 13.1 | –
C[CH2][Hg][S]c1ccccc1C(=O)O [thimerosal] | – | 152
